We go through four molecules from patent US11033597B2, “Dermatological kit comprising compositions based on hibiscus flower and buriti oil” (MEDICAL BRANDS RESEARCH B.V., priority 2014, dated 2021).

The assay deals with human skin explants. Kind of assay: Exfoliating action of plant extracts on human skin explants ex vivo (morphology of the stratum corneum). In kind it is cell-based. The settings on record: for Exfoliating activity, Result: day 4, compared to control group TJ.

Entries after “also recorded” stand apart in the source; their conditions may differ.

Protocol: Particular attention is paid to the morphology of the stratum corneum.
Activity is assessed by examination of the morphology.
The explants were stored in BEM (BIO-EC's Explants Medium) at 37° C. in a humid atmosphere enriched with 5% C02.
The test product is applied topically at a rate of 2 μl per explant, using a spatula to spread, on days 0, 2 and 3.
On day 0, the 3 explants of batch T0 were removed and cut into 2. One portion was fixated in a buffered formalin solution and the second part was frozen at −80° C. At Day 4, the 3 explants of each batch were taken and treated in the same manner.
After a fixation of 24 hours in buffered formalin, the samples were dried and soaked in paraffin using an automatic dehydration system, Leica TP 1020. They were embedded in a resin using a coating system Leica EG 1160.
Slices of 5 microns have been produced using a microtome type Minot Leica RM 2125 and mounted on microscope slides type histological SuperFrost®.
Microscopic observations were performed by optical microscopy, using a Leica Orthoplan microscope and an Olympus BX43. The shots were made with an Olympus DP72 camera and Cell ^ D software.
Paraffin sections were stained with Masson's trichrome stain, Goldner variant. Microscopic examination was carried out to assess the general morphology of the dermal and epidermal structures.
Particular attention was paid to the morphology of the Stratum Corneum.

For the molecule `O=C(O)c1ccccc1O` [Product P1, Natural Salicylic Acid], the “exfoliation of the upper layers of the stratum corneum (morphology)” value (“exfoliation of the upper layers … (morphology)” below) (0.25% (C3), day 4) was “appeared normal; also recorded: does not present a significant exfoliating activity”; the “exfoliation of the upper layers … (morphology)” value (0.5% (C2), day 4) was “appeared normal; also recorded: does not present a significant exfoliating activity”; the “exfoliation of the upper layers … (morphology)” value (1% (C1), day 4) is on record as “light exfoliation of the upper layers”. For the same molecule, where the note is “1% (C1), day 4”, the “number of cell layers of the SC” value is “slightly reduced”. In addition, the “Exfoliating activity, Result” value (1% (C1)) amounted to 4.
`CC(O)C(=O)O` (stereo not drawn) [Product P3, Lactic acid]: the “exfoliation of the upper layers … (morphology)” value reads like this: (0.25% (C3), day 4) “appeared normal; also recorded: no appreciable exfoliating activity”; (0.5% (C2), day 4) “very light exfoliation of the upper layers”; (1% (C1), day 4) “light exfoliation of the upper layers”. Also, the “Exfoliating activity, Result” value is 2 (0.5% (C2)) and 4 (1% (C1)). Moreover, the “number of cell layers of the SC” value (1% (C1), day 4) is listed as “slightly reduced”.
As to `O=C(O)CO` [Product P4, glycolic acid], the “exfoliation of the upper layers … (morphology)” value (0.25% (C3), day 4) was “appeared normal; also recorded: no appreciable exfoliating activity”; the “exfoliation of the upper layers … (morphology)” value (0.5% (C2), day 4) is “very light and irregular exfoliation of the upper layers”; the “exfoliation of the upper layers … (morphology)” value (1% (C1), day 4) was “light and irregular exfoliation of the upper layers; also recorded: slight irregular exfoliation”. For the same molecule, the “Exfoliating activity, Result” value came to 3 (0.5% (C2)) and 4 (1% (C1)).
For the molecule `O=C(O)C(Cl)(Cl)Cl` [Product P6, trichloroacetic acid], the “exfoliation of the upper layers … (morphology)” value was “appeared normal; also recorded: no significant activity in the exfoliation” (0.25% (C3), day 4); “light and irregular exfoliation of the upper layers; also recorded: uneven exfoliation” (0.5% (C2), day 4); “moderate exfoliation of the upper layers” (1% (C1), day 4). Further, the “number of cell layers of the SC” value is listed as “slightly reduced” (0.5% (C2), day 4) and “moderately reduced” (1% (C1), day 4). Also, the “Exfoliating activity, Result” value by setting is: (0.5% (C2)) 4; (1% (C1)) 6. Further, the “exfoliating activity, comparison of products” value (especially samples of 1% concentration, day 4) is “best exfoliating activity”.
